Data from patent EP0888293B1, “N-ACYLAMINOALKYLHYDRAZINECARBOXIMIDAMIDES” (ALTEON Inc., priority 1995, dated 1997).
Structures can show the parent of a compound that is named as a salt.

Tests used:
[1] = test system: fixed protein (gelatin, i.e., collagen) surface; assay: Surface browning experiment on gelatin/paper disks; conditions: 100 mM glucose-6-phosphate, one week at 50°C, pH 7.4; Peridex at final concentration of 0.04% chlorhexidine, no compound of Formula I
Method: To further study the ability of inhibitors of nonenzymatic browning to prevent the discoloration of protein on a surface, such as that which occurs on the tooth surface, the following surface browning experiment is performed. As a substitute for a pellicle-covered tooth surface, unexposed and developed photographic paper is used to provide a fixed protein (gelatin, i.e., collagen) surface on a paper backing. Five millimeter circles are punched and immersed for one week at 50°C in a solution of 100 mM glucose-6-phosphate in a 0.5 M phosphate buffer, pH 7.4, containing 3 mM sodium azide. Glucose-6-phosphate is a sugar capable of participating in nonenzymatic browning at a more rapid rate than glucose. In addition to the glucose-6-phosphate, chlorhexidine and/or a compound of Formula I are included. After incubation, the gelatin/paper disks are rinsed with water, observed for brown color, and photographed.

[2] = test system: N-acetyl glycyl-lysine methyl ester; assay: Inhibition of cross-linking of N-acetyl glycyl-lysine methyl ester in the presence of ribose (fluorescence); format: biochemical; conditions: N-acetylglycyllysine methyl ester + ribose, pH 7.4, 37°C, 16-24 hours, fluorescence 350/400 nm
Method: The following method was used to evaluate the ability of the compounds of the present invention to inhibit the cross-linking of N-acetyl glycyl-lysine methyl ester in the presence of ribose.
• 0.5 M sodium phosphate buffer pH 7.4 • N-acetylglycyllysine methyl ester in 0.5M sodium phosphate buffer, pH 7.4 • Ribose: 800 mM • Test compounds dissolved in the above buffer and the pH is adjusted to 7.4, if necessary
Reaction mixtures are prepared as follows:
and incubated at 37°C for 16-24 hours. At the end of the incubation period, the fluorescence is read using an excitation wavelength of 350 nm and emission wavelength of 400 nm.

[3] = target: T1, inducible nitric oxide synthase (Mus musculus, UniProt P29477); assay: Nitric oxide production by lipopolysaccharide-induced macrophage cells; format: cell-based; conditions: RAW 264.7 macrophage cells induced with lipopolysaccharide; test concentration not given
T1 construct: Nitric oxide (NO) production by macrophage cells (RAW 264.7) is induced with lipopolysaccharride; endogenous in cells; host or cells: RAW 264.7 macrophage cells, LPS-induced

[H]/N=C(\N/C(=N/[H])NCCCCCCNC(=N)NC(=N)Nc1ccc(Cl)cc1)Nc1ccc(Cl)cc1 [chlorhexidine] was tested, and the “browning of gelatin/paper disks” value [1] was “significant browning”.

For Br.CC(=O)NCCNC(=N)NN [N-(2-acetamidoethyl)hydrazine carboximidamide hydrobromide], the IC50 ([2]; hydrobromide) was 11.5 mM and the “% inhibition of NO release” value [3] was 20%.

With N=C(N)NN [Aminoguanidine hydrochloride, reference compound] the IC50 [2] was 10 mM and the “% inhibition of NO release” value [3] was 44%.

For CC(=O)NCCCNC(=N)NN [N-(3-acetamidopropyl)hydrazinecarboximidamide], the IC50 [2] was greater than 10 mM and the “% inhibition of NO release” value [3] was 33%.

For CC(=O)NCCNC(=N)NN.Cl [N-(2-acetamidoethyl)hydrazine carboximidamide hydrochloride], the IC50 ([2]; hydrochloride) was 10.6 mM and the “% inhibition of NO release” value [3] was 15%.
